These results are taken from US9498479B2, “Dihydropyrimidine compounds and their application in pharmaceuticals” (SUNSHINE LAKE PHARMA CO., LTD., priority 2013, dated 2016).

For one series, the system named is HBV. Put plainly: In-vitro anti-HBV activity in stable HBV-producing cell line (HepG2.2.15), HBV DNA in culture fluid by qPCR. It is filed as cell-based. To be noted: Hepatitis B virus, 168 h; HepG2.2.15 cells, HBV DNA in culture media on day 7, qPCR. As to the method:
Specific procedures are as follows:
HepG2.2.15 cells were seeded into each well of 96-well plates, 40,000 cells per well. Cells were treated with cell culture medium containing compounds with different concentrations 24 hours after cell seeding. The final concentration of each compound was 16.4 μM in each well and each compound was diluted to desired concentration using 3-fold gradient dilution protocol, 9 diluted points in duplicate. The culture mediums containing the compounds were refreshed on day 4 post cell seeding. Culture media were collected from the HepG2.2.15 plates on day 7 post cell seeding followed by HBV DNA extraction.
HBV DNA extraction: The HBV DNA extraction was performed using QIAamp 96 DNA Blood Kit (QIAGEN 51161).
PCR for quantification: PCR mix was prepared according to PCR system. PCR mix was dispensed to 96-well optical reaction plates (special for quantification). The standard diluted proportionally was added. Then the sample was added; The plates were sealed with optical adhesive film; PCR system was performed according to programs.
Percentage of HBV inhibition of DNA replication by compound was calculated using the following equation: % Inh.=[1-HBV DNA quantity of sample/HBV DNA quantity of DMSO control]*100.
Calculating EC50 value of compounds to HBV replication: the EC50 values were calculated based on “four-parameter logistic equation” and using GraphPad Prism 5 analysis software.
Background: In qPCR the cycle at which signal appears reflects the starting amount.

Series [1] is described as follows: Test compounds' PK assay in ICR mice. The format is in vivo. To be noted: for AUC(0-t): AUC in 0-24 hours; for AUC(0-inf): AUC in 0 hour to infinite time; for Vd: read-out: Vss. The protocol:
The test compounds were poured into ICR mice stomach through mouth with 10 mg/kg or 5 mg/kg, or administered 2 mg/kg to ICR mice by tail-intravenous injection. Blood sample of orbital vein was taken at 0.083, 0.25, 0.5, 1, 2, 4, 6, 8 and 24 hours after administration, and collected in anticoagulation tube added with EDTA-K2. The test compounds were extracted from plasma samples and chromatographed on a tandem mass spectrometer. Quantitation was performed using multiple reaction monitoring (MRM). Pharmacokinetic parameters were calculated using WinNonlin 6.3 software with non compartment model.

Setting [2] is: ICR mice, po 5 mg/kg vs iv 2 mg/kg, calculated by the AUClast.
The mark [3] stands for this setting: mouse, plasma, ICR mice, iv, 2 mg/kg.
[4] abbreviates: mouse, plasma, ICR mice, iv, 2 mg/kg, read-out: Cmax.
Setting [5] is: mouse, plasma, ICR mice, iv, 2 mg/kg, read-out: Tmax.
Setting [6] is: mouse, plasma, ICR mice, po, 5 mg/kg.
Setting [7] is: mouse, plasma, ICR mice, po, 5 mg/kg, read-out: Cmax.
The mark [8] stands for this setting: mouse, plasma, ICR mice, po, 5 mg/kg, read-out: Tmax.

SMILES strings stand for the structures. Where two headings read alike, the source gives them in different places.

In general, EC50 refers to the concentration needed to bring the measured effect to its halfway point. Low readings indicate an effect from little substance, high ones a need for much substance. `CCOC(=O)C1=C(CN2CCS(=O)(=O)C[C@H]2C(=O)O)NC(c2nccs2)=N[C@H]1c1ccc(F)cc1Br` [Example 2, (R)-4-(((R)-6-(2-bromo-4-fluorophenyl)-5-(ethoxycarbonyl)-2-(thiazol-2-yl)-3,6-dihydropyrimidin-4-yl)methyl)thiomorpholine-3-carboxylic acid 1,1-dioxide] registered an EC50 in the series with HBV of 6630 nM.

What is called clearance is the rate of elimination divided by the concentration. Lower therefore signals inefficient removal. By half-life is commonly meant how long it takes for the measured level to halve. A high value points to slow loss. For orientation: AUC(0-t) means the area under the concentration-time curve up to a stated or last time point. For orientation: AUC(0-inf) means total exposure, with the tail of the curve extrapolated. One may read the Cmax as the highest concentration seen after dosing. Broadly, the Tmax is the time at which the peak concentration occurs. Regarding `CCOC(=O)C1=C(CN2CC(F)(F)C[C@H]2CCC(=O)O)NC(c2nccs2)=N[C@H]1c1ccc(F)cc1Br` [Example 6, 3-((R)-1-(((R)-6-(2-bromo-4-fluorophenyl)-5-(ethoxycarbonyl)-2-(thiazol-2-yl)-3,6-dihydropyrimidin-4-yl)methyl)-4,4-difluoropyrrolidin-2-yl)propanoic acid], in series [1] (setting [2]), the F is recorded as 59.3%. The “absorption after intragastric administration (in words)” value (“absorption” below) in series [1] (ICR mice, po, 5 mg/kg) is listed as “rapidly absorbed”. Moreover, in series [1] (setting [3]), the clearance is 10.2 mL/min/kg, the half-life is 46.2 min, the AUC(0-t) came to 3270 ng·h/mL and the AUC(0-inf) turned out to be 3270 ng·h/mL. In addition, the Vd in series [1] (setting [3]) is 0.38 L/kg. The maximum concentration (Cmax) in series [1] (setting [4]) came to 6560 ng/mL. Also, in series [1] (setting [5]), the time to peak (Tmax) turned out to be 4.8 min. Besides, in series [1] (setting [6]), the half-life is 188 min, the exposure AUC(0-t) was 4840 ng·h/mL and the AUC(0-inf) stood at 4850 ng·h/mL. Moreover, the peak concentration (Cmax) in series [1] (setting [7]) stood at 5410 ng/mL. Moreover, in series [1] (setting [8]), the Tmax was determined as 15 min.

In the series on HBV, `CCOC(=O)C1=C(CN2CC(F)(F)C[C@H]2CCC(=O)O)NC(c2nccn2C)=NC1c1ccc(F)cc1Br` (stereo partly drawn) [Example 7, 3-((2R)-1-((6-(2-bromo-4-fluorophenyl)-5-(ethoxycarbonyl)-2-(1-methyl-1H-imidazol-2-yl)-3,6-dihydropyrimidin-4-yl)methyl)-4,4-difluoropyrrolidin-2-yl)propanoic acid] gave an EC50 of 65 nM.

As to `CCOC(=O)C1=C(CN2CC(F)(F)C[C@H]2CC(C)C(=O)O)NC(c2nccs2)=N[C@H]1c1ccc(F)cc1Br` (stereo partly drawn) [Example 8, 3-((R)-1-(((R)-6-(2-bromo-4-fluorophenyl)-5-(ethoxycarbonyl)-2-(thiazol-2-yl)-3,6-dihydropyrimidin-4-yl)methyl)-4,4-difluoropyrrolidin-2-yl)-2-methylpropanoic acid], in series [1] (setting [2]), the F is 69.3%. The “absorption” value in series [1] (ICR mice, po, 5 mg/kg) is reported as “rapidly absorbed”. In series [1] (setting [3]), the clearance is 11.5 mL/min/kg, the half-life is 81 min, the AUC(0-t) is 2860 ng·h/mL and the AUC(0-inf) amounted to 2870 ng·h/mL. In addition, the Vd in series [1] (setting [3]) was determined as 0.39 L/kg. For the same compound, in series [1] (setting [4]), the Cmax was 5790 ng/mL. Further, the time to peak (Tmax) in series [1] (setting [5]) amounted to 4.8 min. Besides, in series [1] (setting [6]), the half-life was 63 min, the AUC(0-t) amounted to 4960 ng·h/mL and the AUC(0-inf) was determined as 4970 ng·h/mL. Further, the Cmax in series [1] (setting [7]) came out at 4820 ng/mL. Moreover, the time of peak concentration (Tmax) in series [1] (setting [8]) turned out to be 15 min.

Take `CCOC(=O)C1=C(CN2CC(F)(F)C[C@H]2C(C)CC(=O)O)NC(c2nccs2)=N[C@H]1c1ccc(F)cc1Br` (stereo partly drawn) [Example 9, 3-((S)-1-(((R)-6-(2-bromo-4-fluorophenyl)-5-(ethoxycarbonyl)-2-(thiazol-2-yl)-3,6-dihydropyrimidin-4-yl)methyl)-4,4-difluoropyrrolidin-2-yl)butanoic acid]: the F in series [1] (setting [2]) is recorded as 60.2%. For the same compound, the “absorption” value in series [1] (ICR mice, po, 5 mg/kg) is on record as “rapidly absorbed”. For the same compound, in series [1] (setting [3]), the clearance was 10.3 mL/min/kg, the half-life was 82.2 min, the AUC(0-t) is 3230 ng·h/mL and the AUC(0-inf) came out at 3240 ng·h/mL. Moreover, the Vd in series [1] (setting [3]) was determined as 0.33 L/kg. Also, in series [1] (setting [4]), the Cmax came to 6270 ng/mL. Besides, in series [1] (setting [5]), the time to peak (Tmax) was found to be 4.8 min. In series [1] (setting [6]), the half-life is 63.6 min, the AUC(0-t) turned out to be 4860 ng·h/mL and the area under the curve AUC(0-inf) was 4870 ng·h/mL. In addition, in series [1] (setting [7]), the Cmax was 5460 ng/mL. Further, in series [1] (setting [8]), the Tmax is 15 min.

With `CCOC(=O)C1=C(CN2CC(F)(F)C[C@H]2CCC(=O)O)NC(c2nccs2)=N[C@H]1c1ccc(F)cc1Cl` [Example 12, 3-((R)-1-(((R)-6-(2-chloro-4-fluorophenyl)-5-(ethoxycarbonyl)-2-(thiazol-2-yl)-3,6-dihydropyrimidin-4-yl)methyl)-4,4-difluoropyrrolidin-2-yl)propanoic acid], the EC50 in the series with HBV was found to be 98 nM.

Compound `CCOC(=O)C1=C(CN2CC(F)(F)C[C@H]2CCC(=O)O)NC(c2nccs2)=N[C@H]1c1ccc(Cl)cc1Cl` [Example 13, 3-((R)-1-(((R)-6-(2,4-dichlorophenyl)-5-(ethoxycarbonyl)-2-(thiazol-2-yl)-3,6-dihydropyrimidin-4-yl)methyl)-4,4-difluoropyrrolidin-2-yl)propanoic acid] showed an EC50 with HBV of 64 nM.

The compound `COC(=O)C1=C(CN2CC(F)(F)C[C@H]2CCC(=O)O)NC(c2nccs2)=N[C@H]1c1ccc(F)cc1Br` [Example 14, 3-((R)-1-(((R)-6-(2-bromo-4-fluorophenyl)-5-(methoxycarbonyl)-2-(thiazol-2-yl)-3,6-dihydropyrimidin-4-yl)methyl)-4,4-difluoropyrrolidin-2-yl)propanoic acid] displayed an EC50 in the series on HBV of 80 nM.

`COC(=O)C1=C(CN2CC(F)(F)C[C@H]2CCC(=O)O)NC(c2nccs2)=N[C@H]1c1ccc(F)cc1Cl` [Example 15, 3-((R)-1-(((R)-6-(2-chloro-4-fluorophenyl)-5-(methoxycarbonyl)-2-(thiazol-2-yl)-3,6-dihydropyrimidin-4-yl)methyl)-4,4-difluoropyrrolidin-2-yl)propanoic acid] yielded a concentration for a half-maximal effect (EC50) in the series with HBV of 94 nM.

Compound `COC(=O)C1=C(CN2CC(F)(F)C[C@H]2CCC(=O)O)NC(c2nccs2)=N[C@H]1c1ccc(Cl)cc1Cl` [Example 16, 3-((R)-1-(((R)-6-(2,4-dichlorophenyl)-5-(methoxycarbonyl)-2-(thiazol-2-yl)-3,6-dihydropyrimidin-4-yl)methyl)-4,4-difluoropyrrolidin-2-yl)propanoic acid] returned a half-maximal effective concentration (EC50) in the series with HBV of 62 nM.

For the compound `CCOC(=O)C1=C(CN2CC(F)(F)C[C@@H]2CCC(=O)O)NC(c2nccs2)=N[C@H]1c1ccc(F)cc1Br` [Example 17, 3-((S)-1-(((R)-6-(2-bromo-4-fluorophenyl)-5-(ethoxycarbonyl)-2-(thiazol-2-yl)-3,6-dihydropyrimidin-4-yl)methyl)-4,4-difluoropyrrolidin-2-yl)propanoic acid], the EC50 in the series on HBV turned out to be 12 nM.

Regarding `CCOC(=O)C1=C(CN2CC(F)C(C)(C)C2CCC(=O)O)NC(c2nccs2)=N[C@H]1c1ccc(F)cc1Br` (stereo partly drawn) [Example 39, 3-(1-(((R)-6-(2-bromo-4-fluorophenyl)-5-(ethoxycarbonyl)-2-(thiazol-2-yl)-3,6-dihydropyrimidin-4-yl)methyl)-4-fluoro-3,3-dimethylpyrrolidin-2-yl)propanoic acid], the F in series [1] (setting [2]) is reported as 86.1%. In series [1] (ICR mice, po, 5 mg/kg), the “absorption” value is reported as “rapidly absorbed”. In series [1] (setting [3]), this compound gave a clearance of 5.67 mL/min/kg, a half-life of 193 min, an AUC(0-t) of 5800 ng·h/mL and a total exposure AUC(0-inf) of 5810 ng·h/mL. In addition, in series [1] (setting [3]), the Vd came to 0.73 L/kg. Further, in series [1] (setting [4]), the highest concentration (Cmax) was 4260 ng/mL. Besides, the Tmax in series [1] (setting [5]) was found to be 4.8 min. For the same compound, in series [1] (setting [6]), the half-life was 133 min, the AUC(0-t) was determined as 12500 ng·h/mL and the AUC(0-inf) is 12500 ng·h/mL. Also, the highest concentration (Cmax) in series [1] (setting [7]) amounted to 4900 ng/mL. For the same compound, the Tmax in series [1] (setting [8]) worked out at 30 min.

In general, Vss refers to a proportionality between amount in the body and measured concentration, not a real space. In turn, `CCOC(=O)C1=C(CN2CCOCC2)NC(c2nccs2)=NC1c1ccc(F)cc1Br` (centres unmarked) [R, Ethyl4-(2-bromo-4-fluorophenyl)-2-(thiazol-2-yl)-6-((4-morpholino)methyl)-1,4-dihydropyrimidine-5-carboxylate, reference compound] gave a F in series [1] (mouse, in vivo) of 7.75%. In series [1] (mouse, in vivo, iv, 2 mg/kg), this compound registered an AUCINF of 381.2 ng·h/mL, an AUClast of 379.13 ng·h/mL, a CL of 87.5 mL/min/kg and a Cmax of 654.37 ng/mL. In series [1] (mouse, in vivo, iv, 2 mg/kg), the Tmax was determined as 4.98 min, the distribution volume (Vss) came to 7.91 L/kg and the t1/2 was determined as 172 min. Besides, in series [1] (mouse, in vivo, po, 10 mg/kg), the AUCINF was found to be 147.71 ng·h/mL, the AUClast turned out to be 145.05 ng·h/mL, the Cmax worked out at 78.2 ng/mL and the Tmax was 15 min. For the same compound, the t1/2 in series [1] (mouse, in vivo, po, 10 mg/kg) came out at 221 min.
